# Experimental data from ChEMBL document CHEMBL5715954, “Silencing c-Myc translation as a therapeutic strategy through targeting PI3Kδ and CK1ε in hematological malignancies” (Blood, 2017).
# What was measured:
# Design in all cases: scale not given: the % may be the effect or the level left
# [1] = biological target: T1, Dual specificity mitogen-activated protein kinase kinase 3 (Homo sapiens) (UniProt P46734); assay: Inhibition of human MEK3 assessed as enzyme activity at 1 uM using p38a (K53A) as substrate preincubated for 20 mins followed by [gamma-33P]-ATP addition and measured after 120 mins by radiometric Hot-SpotSM Kinase assay relative to control
# T1 sequence (whole entry): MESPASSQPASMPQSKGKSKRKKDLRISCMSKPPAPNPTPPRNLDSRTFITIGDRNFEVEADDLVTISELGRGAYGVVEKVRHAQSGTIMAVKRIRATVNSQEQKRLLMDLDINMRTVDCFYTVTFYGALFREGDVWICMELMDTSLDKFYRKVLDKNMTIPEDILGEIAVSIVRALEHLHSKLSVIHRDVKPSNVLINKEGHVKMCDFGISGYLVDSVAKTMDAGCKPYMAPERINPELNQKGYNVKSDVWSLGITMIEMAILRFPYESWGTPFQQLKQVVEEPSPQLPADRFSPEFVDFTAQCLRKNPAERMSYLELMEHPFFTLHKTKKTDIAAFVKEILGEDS
# [2] = biological target: T2, Muscle, skeletal receptor tyrosine-protein kinase (Homo sapiens) (UniProt O15146); assay: Inhibition of human MUSK assessed as enzyme activity at 1 uM using myelin basic protein as substrate preincubated for 20 mins followed by [gamma-33P]-ATP addition and measured after 120 mins by radiometric Hot-SpotSM Kinase assay relative to control
# T2 sequence (whole entry): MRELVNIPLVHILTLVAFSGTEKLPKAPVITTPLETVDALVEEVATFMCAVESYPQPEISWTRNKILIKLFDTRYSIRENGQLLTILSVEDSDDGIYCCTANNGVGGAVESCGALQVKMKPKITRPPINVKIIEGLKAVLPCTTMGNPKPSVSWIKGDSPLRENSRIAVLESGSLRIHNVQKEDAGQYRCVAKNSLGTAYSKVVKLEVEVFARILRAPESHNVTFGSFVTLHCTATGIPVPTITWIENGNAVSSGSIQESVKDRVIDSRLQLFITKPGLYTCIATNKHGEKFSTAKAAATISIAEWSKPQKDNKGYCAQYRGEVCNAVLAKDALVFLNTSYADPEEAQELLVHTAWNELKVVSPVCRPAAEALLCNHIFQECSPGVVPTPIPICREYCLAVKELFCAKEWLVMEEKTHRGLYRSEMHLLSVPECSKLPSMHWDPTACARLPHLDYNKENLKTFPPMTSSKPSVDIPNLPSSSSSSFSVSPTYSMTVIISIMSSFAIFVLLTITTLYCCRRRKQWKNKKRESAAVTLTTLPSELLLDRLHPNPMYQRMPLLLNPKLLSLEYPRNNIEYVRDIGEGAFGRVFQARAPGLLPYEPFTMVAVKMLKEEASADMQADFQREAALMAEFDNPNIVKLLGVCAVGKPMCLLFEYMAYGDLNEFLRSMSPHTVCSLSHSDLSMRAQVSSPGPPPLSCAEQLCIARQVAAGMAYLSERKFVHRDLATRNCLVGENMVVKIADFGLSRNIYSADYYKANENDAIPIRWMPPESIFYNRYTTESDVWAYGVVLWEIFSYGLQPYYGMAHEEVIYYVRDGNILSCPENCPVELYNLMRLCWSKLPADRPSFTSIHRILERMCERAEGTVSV
# [3] = biological target: Calcium/calmodulin-dependent protein kinase type II subunit alpha (Homo sapiens) (UniProt Q9UQM7); assay: Inhibition of human CAMK2a assessed as enzyme activity at 1 uM using KKALRRQETVDAL as substrate preincubated for 20 mins followed by [gamma-33P]-ATP addition and measured after 120 mins by radiometric Hot-SpotSM Kinase assay relative to control
# Calcium/calmodulin-dependent protein kinase type II subunit alpha (Homo sapiens), sequence (Q9UQM7 whole entry): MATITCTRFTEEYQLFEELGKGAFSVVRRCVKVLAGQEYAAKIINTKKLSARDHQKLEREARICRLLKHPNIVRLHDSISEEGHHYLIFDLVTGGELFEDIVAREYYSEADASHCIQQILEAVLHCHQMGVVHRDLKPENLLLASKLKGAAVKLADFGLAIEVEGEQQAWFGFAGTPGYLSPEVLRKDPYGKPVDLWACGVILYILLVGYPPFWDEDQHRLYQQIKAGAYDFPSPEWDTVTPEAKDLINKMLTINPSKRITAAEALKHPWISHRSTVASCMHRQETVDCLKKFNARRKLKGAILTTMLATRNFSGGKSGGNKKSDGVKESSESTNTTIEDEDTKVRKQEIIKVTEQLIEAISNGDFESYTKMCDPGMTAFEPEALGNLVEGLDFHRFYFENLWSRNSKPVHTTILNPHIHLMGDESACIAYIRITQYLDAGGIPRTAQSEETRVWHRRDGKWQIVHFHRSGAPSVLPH
# [4] = biological target: Serine/threonine-protein kinase/endoribonuclease IRE1 (Homo sapiens) (UniProt O75460); assay: Inhibition of human ERN1 assessed as enzyme activity at 1 uM using myelin basic protein as substrate preincubated for 20 mins followed by [gamma-33P]-ATP addition and measured after 120 mins by radiometric Hot-SpotSM Kinase assay relative to control
# Serine/threonine-protein kinase/endoribonuclease IRE1 (Homo sapiens), sequence (O75460 19-977 limits assumed): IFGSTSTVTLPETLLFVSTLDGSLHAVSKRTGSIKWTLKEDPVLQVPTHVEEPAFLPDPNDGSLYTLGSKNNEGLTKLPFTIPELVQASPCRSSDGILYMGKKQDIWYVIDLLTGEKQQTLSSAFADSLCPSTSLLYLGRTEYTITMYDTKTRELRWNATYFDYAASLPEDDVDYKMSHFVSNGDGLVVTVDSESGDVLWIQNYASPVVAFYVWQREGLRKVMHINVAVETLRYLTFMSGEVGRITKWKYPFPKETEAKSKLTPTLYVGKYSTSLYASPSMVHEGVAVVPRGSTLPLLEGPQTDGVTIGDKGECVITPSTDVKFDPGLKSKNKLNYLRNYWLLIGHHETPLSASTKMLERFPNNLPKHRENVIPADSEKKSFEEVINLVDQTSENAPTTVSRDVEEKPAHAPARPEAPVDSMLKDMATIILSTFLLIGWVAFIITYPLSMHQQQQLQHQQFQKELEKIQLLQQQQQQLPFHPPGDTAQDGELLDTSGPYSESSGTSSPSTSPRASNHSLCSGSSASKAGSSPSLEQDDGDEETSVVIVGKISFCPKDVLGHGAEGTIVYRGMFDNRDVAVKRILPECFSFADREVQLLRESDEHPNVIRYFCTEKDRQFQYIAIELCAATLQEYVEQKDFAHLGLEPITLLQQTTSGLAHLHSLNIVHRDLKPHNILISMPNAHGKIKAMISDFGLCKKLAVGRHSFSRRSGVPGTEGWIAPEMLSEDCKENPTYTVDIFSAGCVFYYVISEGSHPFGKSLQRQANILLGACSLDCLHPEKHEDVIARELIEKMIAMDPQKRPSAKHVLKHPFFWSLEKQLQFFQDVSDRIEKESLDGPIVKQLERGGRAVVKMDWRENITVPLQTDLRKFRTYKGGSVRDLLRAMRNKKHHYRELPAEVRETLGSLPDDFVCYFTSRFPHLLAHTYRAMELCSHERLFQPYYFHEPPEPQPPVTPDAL
# [5] = biological target: CDK4/Cyclin D3 (Homo sapiens) (UniProt P11802+P30281); assay: Inhibition of human CDK4/cyclin D3 assessed as enzyme activity at 1 uM using RB-CTF as substrate preincubated for 20 mins followed by [gamma-33P]-ATP addition and measured after 120 mins by radiometric Hot-SpotSM Kinase assay relative to control; type: protein-complex assay
# [6] = biological target: Insulin receptor-related protein (Homo sapiens) (UniProt P14616); assay: Inhibition of human IRR assessed as enzyme activity at 1 uM using myelin basic protein as substrate preincubated for 20 mins followed by [gamma-33P]-ATP addition and measured after 120 mins by radiometric Hot-SpotSM Kinase assay relative to control
# Insulin receptor-related protein (Homo sapiens), sequence (P14616 27-742 limits assumed): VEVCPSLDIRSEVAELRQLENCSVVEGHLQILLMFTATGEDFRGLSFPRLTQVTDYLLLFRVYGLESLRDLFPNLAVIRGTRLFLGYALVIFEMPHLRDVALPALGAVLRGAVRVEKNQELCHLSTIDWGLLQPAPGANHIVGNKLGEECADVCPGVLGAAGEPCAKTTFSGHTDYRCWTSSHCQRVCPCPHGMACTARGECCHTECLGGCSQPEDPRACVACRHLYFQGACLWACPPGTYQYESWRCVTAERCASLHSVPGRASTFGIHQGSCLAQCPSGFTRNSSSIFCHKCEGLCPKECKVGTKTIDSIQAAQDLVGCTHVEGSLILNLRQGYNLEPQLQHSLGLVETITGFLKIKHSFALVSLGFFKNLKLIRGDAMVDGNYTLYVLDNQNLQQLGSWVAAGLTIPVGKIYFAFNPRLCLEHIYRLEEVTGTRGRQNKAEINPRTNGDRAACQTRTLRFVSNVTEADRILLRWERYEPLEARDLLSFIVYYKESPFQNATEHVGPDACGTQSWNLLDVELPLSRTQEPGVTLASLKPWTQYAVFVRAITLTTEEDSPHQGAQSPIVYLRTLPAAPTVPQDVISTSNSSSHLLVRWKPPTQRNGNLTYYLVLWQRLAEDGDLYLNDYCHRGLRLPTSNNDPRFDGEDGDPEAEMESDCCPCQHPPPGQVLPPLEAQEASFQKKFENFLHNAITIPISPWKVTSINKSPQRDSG
# Insulin receptor-related protein (Homo sapiens), sequence (P14616 747-1297 limits assumed): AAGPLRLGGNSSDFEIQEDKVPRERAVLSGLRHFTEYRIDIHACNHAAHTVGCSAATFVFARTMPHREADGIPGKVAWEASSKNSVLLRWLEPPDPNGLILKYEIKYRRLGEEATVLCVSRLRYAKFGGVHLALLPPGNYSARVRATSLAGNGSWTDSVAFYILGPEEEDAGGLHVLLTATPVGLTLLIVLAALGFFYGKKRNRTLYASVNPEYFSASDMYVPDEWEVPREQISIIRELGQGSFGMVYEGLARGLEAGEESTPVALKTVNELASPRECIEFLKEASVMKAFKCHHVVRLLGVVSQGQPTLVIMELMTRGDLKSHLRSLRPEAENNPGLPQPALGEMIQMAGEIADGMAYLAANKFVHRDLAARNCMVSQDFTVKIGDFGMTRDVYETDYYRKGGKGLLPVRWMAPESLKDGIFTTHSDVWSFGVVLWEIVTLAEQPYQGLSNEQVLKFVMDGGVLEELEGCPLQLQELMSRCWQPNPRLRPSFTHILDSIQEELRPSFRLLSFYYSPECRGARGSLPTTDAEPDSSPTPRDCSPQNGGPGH
# [7] = biological target: T3, Serine/threonine-protein kinase TAO3 (Homo sapiens) (UniProt Q9H2K8); assay: Inhibition of human TAOK3 assessed as enzyme activity at 1 uM using myelin basic protein as substrate preincubated for 20 mins followed by [gamma-33P]-ATP addition and measured after 120 mins by radiometric Hot-SpotSM Kinase assay relative to control
# T3 sequence (whole entry): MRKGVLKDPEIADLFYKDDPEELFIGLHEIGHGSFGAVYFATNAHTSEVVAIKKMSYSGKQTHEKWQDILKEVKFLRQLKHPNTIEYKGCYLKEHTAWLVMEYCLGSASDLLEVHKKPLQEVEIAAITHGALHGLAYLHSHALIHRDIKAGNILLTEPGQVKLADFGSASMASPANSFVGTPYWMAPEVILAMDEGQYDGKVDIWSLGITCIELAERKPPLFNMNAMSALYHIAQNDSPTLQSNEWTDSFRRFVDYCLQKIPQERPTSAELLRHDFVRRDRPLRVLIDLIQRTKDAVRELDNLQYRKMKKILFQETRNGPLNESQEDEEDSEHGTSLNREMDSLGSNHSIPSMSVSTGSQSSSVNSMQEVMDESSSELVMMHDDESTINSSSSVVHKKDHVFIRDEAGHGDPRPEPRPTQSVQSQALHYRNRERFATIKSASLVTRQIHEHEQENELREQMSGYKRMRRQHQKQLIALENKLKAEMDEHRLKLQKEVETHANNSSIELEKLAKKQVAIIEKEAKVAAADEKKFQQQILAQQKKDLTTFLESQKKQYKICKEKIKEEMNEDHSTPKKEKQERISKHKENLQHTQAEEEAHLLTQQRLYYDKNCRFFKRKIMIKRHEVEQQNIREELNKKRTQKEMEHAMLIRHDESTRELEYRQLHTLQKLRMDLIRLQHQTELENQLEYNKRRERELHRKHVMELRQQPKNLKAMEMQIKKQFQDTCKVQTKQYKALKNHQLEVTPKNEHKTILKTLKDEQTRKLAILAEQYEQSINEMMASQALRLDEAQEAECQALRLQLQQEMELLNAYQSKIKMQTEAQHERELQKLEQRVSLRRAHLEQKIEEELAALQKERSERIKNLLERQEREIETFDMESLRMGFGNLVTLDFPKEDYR
Compound,Activity [1] [%],Activity [2] [%],Activity [3] [%],Activity [4] [%],Activity [5] [%],Activity [6] [%],Activity [7] [%]
CC[C@H](Nc1ncnc2[nH]cnc12)c1nc2cccc(F)c2c(=O)n1-c1ccccc1,108,94.4,101,96.4,99.3,93.9,98.6
CC(C)Oc1ccc(-c2nn([C@@H](C)c3oc4ccc(F)cc4c(=O)c3-c3cccc(F)c3)c3ncnc(N)c23)cc1F [UMBRALISIB],105,97.5,100,91.6,98.8,96.4,106
C[C@H](Nc1ncnc2nc[nH]c12)c1cc2cccc(Cl)c2c(=O)n1-c1ccccc1,108,95.8,95.4,97.3,97.5,95.9,106
